According to PMC12304826, “Redirecting the Peptide Cleavage Causes Protease Inactivation” (Angewandte Chemie (International Ed. in English), 2025):
Where two headings read alike, the source gives them in different places.

How the values were obtained:
human cathepsin B = target: T1, human cathepsin B (Homo sapiens, UniProt P07858); experiment: Cathepsin B inhibition assay (chromogenic substrate Cbz-Arg-Arg-pNA); assay type: biochemical; conditions: for remaining activity at 20 µM: 20 µM inhibitor, duplicate measurements, product formation after 60 min, read-out: r.a. (%), residual enzymatic activity of cathepsin B; for kinact/KI: 1 h; for kinac: calculated from kinac/Ki values and separately obtained Ki values
T1 construct: purchased Calbiochem, Darmstadt, Germany
Experimental: To get a first insight into the interaction with human cathepsin B, the inhibition of the enzyme‐catalyzed cleavage of a chromogenic peptide substrate was examined. […] Active compounds were subjected to kinetic measurements at five different concentrations (Tables 1 and S1).
Figure 1 Cathepsin B‐catalyzed hydrolysis of 500 µM (= 0.45 K m) of Cbz‐Arg‐Arg‐p‐nitroanilide in the absence (black) or presence of increasing concentrations of carbamate 4 (from top to bottom: 0.4, 0.8, 1.2, 1.6, and 2.0 µM).
1. Enzyme Inhibition Assays and Kinetic Data of Inhibition of Cathepsins B, L, K and S General. Human cathepsins were assayed either fluorimetrically or spectrophotometrically as noted below. The 10 mM inhibitor solutions were prepared in DMSO. The final concentration of DMSO in all assays was 2%. Non-linear regressions were conducted with GraFit 5. Residual cathepsin activity at an inhibitor concentration of 20 µM was determined from duplicate measurements based on the product formation after 60 min. Concentration dependent measurements were performed in duplicate measurements with five different inhibitor concentrations when the residual cathepsin activity in the presence of 20 µM inhibitor was below 70% (cathepsin B) or below 50% (cathepsins cathepsins L, K, and S). Progress curves were monitored for 60 min. First-order rate constants, kobs, were determined by non-linear regression following the equation [P] = vi × (1 – exp(-kobs × t))/kobs + d, where [P] is the product concentration, vi is the initial product formation rate, kobs is the observed first-order rate constant, and d is the offset. Mean values of kobs were plotted versus corresponding inhibitor concentrations [I], and second-order rate constants of inactivation, kinac/Ki, were obtained by linear regression. The equation kobs/[I] = (kinac/Ki)/(1 + [S]/Km) was used, where [S] is the substrate concentration and Km is the Michaelis-Menten constant. Standard errors (SE) refer to the linear regression.
Cathepsin B inhibition assay.[1] Human isolated cathepsin B (Calbiochem, Darmstadt, Germany) was assayed spectrophotometrically on a Cary 50 or 100 Bio, Varian, at 405 nm. The reactions were followed at 37 °C. Assay buffer was 100 mM sodium phosphate buffer pH 6.0, 100 mM NaCl, 5 mM EDTA, 0.01% Brij 35. A stock solution of human cathepsin B of 1.81 mg/mL or 0.47 mg/mL in 20 mM sodium acetate buffer pH 5.0, 1 mM ethylenediaminetetraactic acid (EDTA) was diluted 1:500 with assay buffer containing 5 mM dithiothreitol (DTT) and incubated for 30 min at 37 °C. A 100 mM stock solution of the para-nitroaniline (pNA)-based chromogenic substrate Cbz-Arg-Arg-pNA was prepared in DMSO.
The final concentration of the substrate was 500 μM (= 0.45 Km). Into a cuvette containing 960 μL assay buffer, inhibitor solution and DMSO in a total volume of 15 μL, and 5 μL of the substrate solution were added and mixed. The reaction was initiated by adding 20 μL of the enzyme solution. […]

human cathepsin L = target: T2, human cathepsin L (Homo sapiens, UniProt P07711); experiment: Cathepsin L inhibition assay (Cbz-Phe-Arg-pNA); assay type: biochemical
T2 construct: purchased Enzo Life Sciences, Lörrach, Germany
T2 sequence (P07711 114-333): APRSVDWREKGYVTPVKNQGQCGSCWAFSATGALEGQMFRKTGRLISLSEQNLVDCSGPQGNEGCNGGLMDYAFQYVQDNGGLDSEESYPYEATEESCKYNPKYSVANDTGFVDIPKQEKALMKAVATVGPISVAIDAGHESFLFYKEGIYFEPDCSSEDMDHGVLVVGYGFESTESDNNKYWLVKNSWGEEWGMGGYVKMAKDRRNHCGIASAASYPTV
Experimental: 1. Enzyme Inhibition Assays and Kinetic Data of Inhibition of Cathepsins B, L, K and S General. Human cathepsins were assayed either fluorimetrically or spectrophotometrically as noted below. The 10 mM inhibitor solutions were prepared in DMSO. The final concentration of DMSO in all assays was 2%. Non-linear regressions were conducted with GraFit 5. Residual cathepsin activity at an inhibitor concentration of 20 µM was determined from duplicate measurements based on the product formation after 60 min. Concentration dependent measurements were performed in duplicate measurements with five different inhibitor concentrations when the residual cathepsin activity in the presence of 20 µM inhibitor was below 70% (cathepsin B) or below 50% (cathepsins cathepsins L, K, and S). Progress curves were monitored for 60 min. First-order rate constants, kobs, were determined by non-linear regression following the equation [P] = vi × (1 – exp(-kobs × t))/kobs + d, where [P] is the product concentration, vi is the initial product formation rate, kobs is the observed first-order rate constant, and d is the offset. Mean values of kobs were plotted versus corresponding inhibitor concentrations [I], and second-order rate constants of inactivation, kinac/Ki, were obtained by linear regression. The equation kobs/[I] = (kinac/Ki)/(1 + [S]/Km) was used, where [S] is the substrate concentration and Km is the Michaelis-Menten constant. Standard errors (SE) refer to the linear regression. […] Cathepsin L inhibition assay.[1] Human isolated cathepsin L (Enzo Life Sciences, Lörrach, Germany) was assayed spectrophotometrically on a Cary 50 or 100 Bio, Varian, at 405 nm. The reactions were followed at 37 °C. Assay buffer was 100 mM sodium phosphate buffer pH 6.0, 100 mM NaCl, 5 mM EDTA, and 0.01% Brij 35. A stock solution of human cathepsin L of 135 μg/mL in 20 mM malonate buffer pH 5.5, 400 mM NaCl, and 1 mM EDTA was diluted 1:100 with assay buffer containing 5 mM DTT and incubated for 30 min at 37 °C. A 10 mM stock solution of the chromogenic substrate Cbz-Phe-Arg-pNA was prepared in DMSO. The final concentration of the substrate was 100 μM (= 5.88 Km).
Into a cuvette containing 940 μL assay buffer, inhibitor solution and DMSO in a total volume of 10 μL, and 10 μL of the substrate solution were added and mixed. The reaction was initiated by adding 40 μL of the cathepsin L solution.

[1] = pH 6, five inhibitor concentrations, duplicates, 60 min progress curves, 500 µM Cbz-Arg-Arg-pNA, pH 6.0, 37 °C, read-out: k inac/K i ± SE, second-order rate constant of enzyme inactivation, cathepsin B
[2] = 20 µM inhibitor, 60 min, read-out: Residual activity @ 20 µM (%) Cat L
[3] = inhibitor not soluble at 20 µM, calculated for 20 µM from IC50 at two lower concentrations, read-out: Residual activity @ 20 µM (%) Cat L, approximated [e]

SMILES	remaining activity at 20 µM (human cathepsin B) [%]	kinact/KI (human cathepsin B; [1]) [M⁻¹ s⁻¹]	remaining activity at 20 µM (human cathepsin L; [2]) [%]	further results
CC(C)CC(NC(=O)Oc1ccccc1)C(=O)NC(Cc1ccccc1)C(=O)O (stereo not drawn) [Compound 1]	23	157 ± 13	94	–
CC(C)C[C@H](NC(=O)Oc1ccc(Cl)cc1)C(=O)N[C@@H](Cc1ccccc1)C(=O)OC(C)(C)C [Compound 2]	92	–	96	–
COC(=O)C(Cc1ccccc1)NC(=O)C(CC(C)C)NC(=O)Oc1ccc(Cl)cc1 (stereo not drawn) [Compound 3]	97	–	85	–
CC(C)C[C@H](NC(=O)Oc1ccc(Cl)cc1)C(=O)N[C@@H](Cc1ccccc1)C(=O)O [Compound 4]	≤ 2	745 ± 5	92	–
CC(C)CC(CNC(=O)Oc1ccc(Cl)cc1)C(=O)N[C@H](Cc1ccccc1)C(=O)O (stereo partly drawn) [Compound 5]	11	108 ± 5	90	–
O=C(NC(CC1CCCCC1)C(=O)NC(Cc1ccccc1)C(=O)O)Oc1ccc(Cl)cc1 (stereo not drawn) [Compound 7]	≤ 2	2010 ± 110	86	kinac (human cathepsin B): 0.0200 s⁻¹; Ki (human cathepsin B; non-linear regression of initial rates vi versus inhibitor concentration, read-out: Ki ± SE): 9.96 µM
CC(C)C[C@H](NC(=O)Oc1ccc(Cl)cc1)C(=O)N1CCC[C@H]1C(=O)O [Compound 8]	4	711 ± 40	97	–
CC(C)CC(CNC(=O)Oc1ccc(Cl)cc1)C(=O)N1CCC[C@@H]1C(=O)O (stereo partly drawn) [Compound 9]	53	30.3 ± 4.1	95	–
CC(C)C[C@H](NC(=O)Oc1ccc(Cl)cc1)C(=O)N1CCCC[C@H]1C(=O)O [Compound 10]	5	933 ± 40	91	–
CC(C)C[C@@H](C(=O)N1CCC[C@H]1C(=O)O)N(C)C(=O)Oc1ccc(Cl)cc1 [Compound 15]	–	–	97	–
CC(C)CC(OC(=O)Nc1ccc(Cl)cc1)C(=O)N[C@@H](Cc1ccccc1)C(=O)O (stereo partly drawn) [Compound 16]	91	–	95	–
CC(C)CC(OC(=O)Nc1ccc(Cl)cc1)C(=O)N1CCC[C@H]1C(=O)O (stereo partly drawn) [Compound 17]	68	–	94	kinact/KI (human cathepsin B; five inhibitor concentrations, duplicates, 60 min progress curves, 500 µM Cbz-Arg-Arg-pNA, pH 6.0, 37 °C, read-out: k inac/K i ± SE, second-order rate constant of enzyme inactivation, cathepsin B): 10.6 ± 1.6 M⁻¹ s⁻¹
CC(C)C[C@H](NC(=O)Nc1ccc(Cl)cc1)C(=O)N[C@@H](Cc1ccccc1)C(=O)O [Compound 18]	90	–	94	–
CC(C)C[C@H](NC(=O)Nc1ccc(Cl)cc1)C(=O)N1CCC[C@H]1C(=O)O [Compound 19]	95	–	96	–
CC(C)C[C@H](NC(=O)Oc1ccc(Cl)c(NC(=O)Cc2ccccc2)c1)C(=O)N1CCC[C@H]1C(=O)O [Compound 20]	≤ 2	2860 ± 50	96	–
CC(C)C[C@H](NC(=O)Oc1ccc(-c2ccccc2)c(NC(=O)Cc2ccccc2)c1)C(=O)N1CCC[C@H]1C(=O)O [Compound 21]	≤ 2	1340 ± 20	92	–
CC(C)CC(NC(=O)Oc1ccc(Cl)c(NC(=O)C(c2ccccc2)c2ccccc2)c1)C(=O)N1CCCC1C(=O)O (stereo not drawn) [Compound 22]	≤ 2	3830 ± 70	–	remaining activity at 20 µM (human cathepsin L; [3]): 59%
CC(C)C[C@H](NC(=O)Oc1cccc(Cl)c1)C(=O)N1CCC[C@H]1C(=O)O [Compound 23]	≤ 2	2760 ± 50	92	–
CC(C)C[C@H](NC(=O)Oc1ccc(NC(=O)Cc2ccccc2)c(Cl)c1)C(=O)N1CCC[C@H]1C(=O)O [Compound 24]	≤ 2	6530 ± 310	97	–
CC(C)CC(NC(=O)Oc1ccc(NC(=O)c2ccc(-c3ccccc3)cc2)c(Cl)c1)C(=O)N1CCCC1C(=O)O (stereo not drawn) [Compound 25]	≤ 2	3640 ± 60	94	–
CC(C)C[C@H](NC(=O)Oc1ccc(NC(=O)N(Cc2ccccc2)Cc2ccccc2)c(Br)c1)C(=O)N1CCC[C@H]1C(=O)O [Compound 26]	–	–	–	kinact/KI (human cathepsin B; pH 6, read-out: k inac/K i ± SE, second-order rate constant of enzyme inactivation, cathepsin B): 2660 ± 80 M⁻¹ s⁻¹
CC(C)CC(NC(=O)Oc1ccc(NC(=O)C(c2ccccc2)c2ccccc2)c(Br)c1)C(=O)N1CCCC1C(=O)O (stereo not drawn) [Compound 27]	≤ 2	6000 ± 100	81	–
CC(C)CC(NC(=O)Oc1ccc(NC(=O)C(c2ccccc2)c2ccccc2)c(Cl)c1)C(=O)N1CCCC1C(=O)O (stereo not drawn) [Compound 28]	≤ 2	8180 ± 290	–	remaining activity at 20 µM (human cathepsin L; [3]): 62%
CC(C)CC(NC(=O)Oc1ccc(NC(=O)C(c2ccccc2)c2ccccc2)c(Cl)c1)C(=O)NC(Cc1ccccc1)C(=O)O (stereo not drawn) [Compound 29]	≤ 2	11300 ± 600	–	remaining activity at 20 µM (human cathepsin L; [3]): 70%
O=C(NC(CC1CCCCC1)C(=O)NC(Cc1ccccc1)C(=O)O)Oc1ccc(NC(=O)C(c2ccccc2)c2ccccc2)c(Cl)c1 (stereo not drawn) [Compound 30]	≤ 2	> 10000	–	k inac/K i ± SE, second-order rate constant of enzyme inactivation, cathepsin B (human cathepsin B; five inhibitor concentrations, duplicates, 60 min progress curves, 500 µM Cbz-Arg-Arg-pNA, pH 6.0, 37 °C): 13,800 M^−1s^−1; remaining activity at 20 µM (human cathepsin L; [3]): 64%
O=C(NC(CC1CCCCC1)C(=O)NC(Cc1ccccc1)C(=O)O)Oc1ccc(NC(=O)C(Cc2ccccc2)Cc2ccccc2)c(Cl)c1 (stereo not drawn) [Compound 31]	≤ 2	23600 ± 1900	–	fold lower K i value in comparison with 7 (human cathepsin B; 31 versus 7): more than 20 fold; kinac (human cathepsin B): 0.0104 s⁻¹; Ki (human cathepsin B; non-covalent enzyme-inhibitor complex, read-out: K i value): 0.441 µM; remaining activity at 20 µM (human cathepsin L; [3]): 76%
